The values that follow come from US11351168B1 (Celgene CAR LLC, priority 2008, dated 2022).

Where two headings read alike, the source gives them in different places.

The test system of the assay is BTK signaling in Ramos cells. The assay can be described thus: BTK Ramos cellular assay (phosphorylation of BTK substrate PLCγ2). The note with it: 1 hour compound, anti-IgM stimulation, read-out: BTK Inhibition (Ramos cellular). The format is cell-based, human. Here is the method: Compounds I-2, I-4, and I-7 were assayed in Ramos human Burkitt lymphoma cells. Ramos cells were grown in suspension in T225 flasks, spun down, resuspended in 50 ml serum-free media and incubated for 1 hour. Compound was added to Ramos cells in serum free media to a final concentration of 1, 0.1, 0.01, or 0.001 μM. Ramos cells were incubated with compound for 1 hour, washed again and resuspended in 100 ul serum-free media. Cells were then stimulated with 1 μg of goat F(ab′)2 Anti-Human IgM and incubated on ice for 10 minutes to activate B cell receptor signaling pathways. After 10 minutes, the cells were washed once with PBS and then lysed on ice with Invitrogen Cell Extraction buffer. 16 μg total protein from lysates were loaded on gel and blots were probed for phosphorylation of the BTK substrate PLCγ2.

As for `C=CC(=O)N1CCOc2ccc(Nc3nc(Nc4ccc(OCCO)nc4)ncc3C(C)=O)cc21` [Compound I-128, 1-(6-{5-Acetyl-2-[6-(2-hydroxy-ethoxy)-pyridin-3-ylamino]-pyrimidin-4-ylamino}-2,3-dihydro-benzo[1,4]oxazin-4-yl)-propenone], the IC50 (Homo sapiens) fell in the range of 10 to 100 nM.
Take `C=CC(=O)N1CCOc2ccc(Nc3nc(Nc4ccc5c(c4)CC(=O)N5)ncc3C(C)=O)cc21` [Compound I-129, 5-[5-Acetyl-4-(4-acryloyl-3,4-dihydro-2H-benzo[1,4]oxazin-6-ylamino)-pyrimidin-2-ylamino]-1,3-dihydro-indol-2-one]: the IC50 (Homo sapiens) is below 10 nM.
The same measure, in the same setting: under `C=CC(=O)Nc1cccc(Oc2nc(Nc3ccc(OCCOC)cc3)ncc2C2CC2)c1` [Compound I-131, N-(3-(5-cyclopropyl-2-(4-(2-methoxyethoxy)phenylamino)pyrimidin-4-yloxy)phenyl)acrylamide] stands below 10 nM; under `C=CC(=O)Nc1cccc(Nc2nc(Nc3cc(OC)c(OC)c(OC)c3)ncc2F)c1` [Compound I-133, 4-(3-acrylamidophenylamino)-5-fluoro-2-(3,4,5-trimethoxyphenylamino)-pyrimidine], 10 to 100 nM.
On to `C=CC(=O)Nc1cccc(Nc2nc(Nc3ccc(OC)c(OC)c3)ncc2F)c1` [Compound I-134, 4-(3acrylamidophenylamino)-5-fluoro-2-(3,4-dimethoxyphenylamino)-pyrimidine], for which, under “Homo sapiens”, the IC50 is 10 to 100 nM.
Consider `C=CC(=O)N1CCC[C@@H](Nc2nc(Nc3cccc(OCCN4CCOCC4)c3)ncc2F)C1` [Compound I-135, (R)-1-(3-(5-fluoro-2-(3-(2-morpholinoethoxy)phenylamino)pyrimidin-4-ylamino)piperidin-1-yl)prop-2-en-1-one], for which the IC50 (Homo sapiens) was in the range of 10 to 100 nM.
Still for that read-out and setting: next, `C=CC(=O)Nc1cccc(Nc2nc(Nc3cccc(OCCCS(C)(=O)=O)c3)ncc2F)c1` [Compound I-138, 4-(3-acrylamidophenylamino)-5-fluoro-2-(3-(3-(methylsulfonyl)propoxy)phenylamino)-pyrimidine]: below 10 nM.
Consider `C=CC(=O)Nc1cccc(Nc2nc(Nc3ccc(OCCOC)cc3)ncc2C2CC2)c1` [Compound I-139, N-(3-(5-cyclopropyl-2-(4-(2-methoxyethoxy)phenylamino)pyrimidin-4-ylamino)phenyl)acrylamide], for which the IC50 (Homo sapiens) is 10 to 100 nM.
Same read-out and setting: next, `C=CC(=O)Nc1cccc(Nc2nc(Nc3ccc4c(c3)N(S(C)(=O)=O)CCO4)ncc2F)c1` [Compound I-140, N-(3-(2-(4-methylsulfonyl-2,3-dihydrobenzo[1,4]oxazin-6-yl)amino-5-fluoropyrimidin-4-ylamino)phenyl)acrylamide]: 10 to 100 nM; `C=CC(=O)N1CCOc2ccc(Nc3nc(Nc4ccc(N(C)C(=O)C(F)(F)F)nc4)ncc3C(C)=O)cc21` [Compound I-142, N-(5-(5-acetyl-4-(4-acryloyl-3,4-dihydro-2H-benzo[b][1,4]oxazin-6-ylamino)pyrimidin-2-ylamino)pyridin-2-yl)-2,2,2-trifluoro-N-methylacetamide]: 10 to 100 nM; `C=CC(=O)Nc1cccc(Nc2nc(Nc3ccc4c(c3)N(C(=O)C(F)(F)F)CCO4)ncc2F)c1` [Compound I-143, N-(3-(2-(4-trifluoroacetyl-2,3-dihydrobenzo[1,4]oxazin-6-yl)amino-5-fluoropyrimidin-4-ylamino)phenyl)acrylamide]: below 10 nM.
Regarding `C=CC(=O)N1CCC[C@@H](Nc2nc(Nc3cccc(Cl)c3)ncc2F)C1` [Compound I-147, (R)-1-(3-(2-(3-chlorophenylamino)-5-fluoropyrimidin-4-ylamino)piperidin-1-yl)prop-2-en-1-one], the IC50 (Homo sapiens) was 10 to 100 nM.
`C=CC(=O)N1CCOc2ccc(Nc3nc(Nc4ccc(OCCOC)cc4)ncc3C(C)=O)cc21` [Compound I-150, 1-(6-{5-Acetyl-2-[4-(2-methoxy-ethoxy)-phenylamino]-pyrimidin-4-ylamino}-2,3-dihydro-benzo[1,4]oxazin-4-yl)-propenone]: the IC50 (Homo sapiens) was 10 to 100 nM.
Still for that read-out and setting: under `C=CC(=O)Nc1cccc(Nc2nc(Nc3ccc4c(cnn4C(=O)OC(C)(C)C)c3)ncc2F)c1` [Compound I-151] stands below 10 nM.
Same read-out and setting: under `C=CC(=O)N1CCOc2ccc(Nc3nc(Nc4ccc(N5CCCC5=O)cc4)ncc3C(C)=O)cc21` [Compound I-152, 1-{4-[5-Acetyl-4-(4-acryloyl-3,4-dihydro-2H-benzo[1,4]oxazin-6-ylamino)-pyrimidin-2-ylamino]-phenyl}-pyrrolidin-2-one] stands 10 to 100 nM.
For `C=CC(=O)N1CCOc2ccc(Nc3nc(Nc4ccc5cn[nH]c5c4)ncc3C(C)=O)cc21` [Compound I-153, 1-{6-[5-Acetyl-2-(1H-indazol-6-ylamino)-pyrimidin-4-ylamino]-2,3-dihydro-benzo[1,4]oxazin-4-yl}-propenone], the IC50 is below 10 nM.
In the case of `C=CC(=O)Nc1cccc(Nc2nc(Nc3ccc4[nH]ncc4c3)ncc2F)c1` [Compound I-156], under “Homo sapiens”, the IC50 was below 10 nM.
Consider `C=CC(=O)Nc1cccc(Nc2nc(Nc3ccccc3)ncc2C#N)c1` [Compound I-157, N-(3-(5-cyano-2-(phenylamino)pyrimidin-4-ylamino)phenyl)acrylamide], for which the IC50 (Homo sapiens) was below 10 nM.
The same measure, in the same setting: next, `C=CC(=O)Nc1cccc(Nc2nc(Nc3cccc(OC)c3)ncc2OC)c1` [Compound I-158, N-(3-(5-methoxy-2-(3-methoxyphenylamino)pyrimidin-4-ylamino)phenyl)acrylamide]: 10 to 100 nM; `C=CC(=O)Nc1cccc(Oc2nc(Nc3ccc(OC)nc3)ncc2C(=O)Nc2ccccc2)c1` [Compound I-159, 4-(3-acrylamidophenoxy)-2-(6-methoxypyridin-3-ylamino)-pyrimidine-5-carboxylic acid phenylamide]: 100 to 1000 nM; `C=CC(=O)Nc1cccc(Nc2nc(Nc3cccc(S(N)(=O)=O)c3)ncc2F)c1` [Compound I-160, N-(3-(5-fluoro-2-(3-sulfamoylphenylamino)pyrimidin-4-ylamino)phenyl)acrylamide]: 10 to 100 nM.
Same read-out and setting: under `C=CC(=O)N1Cc2ccc(Nc3nc(Nc4ccc(OC)nc4)ncc3F)cc2C1` [Compound I-165, 1-(5-(5-fluoro-2-(6-methoxypyridin-3-ylamino)pyrimidin-4-ylamino)isoindolin-2-yl)prop-2-en-1-one] stands 10 to 100 nM; under `C=CC(=O)N1CCc2ccc(Nc3nc(Nc4ccc(OC)nc4)ncc3F)cc21` [Compound I-166, 1-(6-(5-fluoro-2-(6-methoxypyridin-3-ylamino)pyrimidin-4-ylamino)indolin-1-yl)prop-2-en-1-one], 10 to 100 nM.
Turning to `C=CC(=O)Nc1cccc(Nc2nc(Nc3ccc(OC)nc3)ncc2C2CC2)c1` [Compound I-167, N-(3-(5-cyclopropyl-2-(6-methoxypyridin-3-ylamino)pyrimidin-4-ylamino)phenyl)acrylamide], the IC50 (Homo sapiens) is 10 to 100 nM.
On the same count and under the same terms, under `C=CC(=O)N1CCOc2ccc(Nc3nc(Nc4ccc(N5CCOCC5)nc4)ncc3C(C)=O)cc21` [Compound I-168, 1-{6-[5-Acetyl-2-(6-morpholin-4-yl-pyridin-3-ylamino)-pyrimidin-4-ylamino]-2,3-dihydro-benzo[1,4]oxazin-4-yl}-propenone] stands 10 to 100 nM; under `C=CC(=O)N1CCOc2ccc(Nc3nc(Nc4ccc(N5CCOCC5)cc4)ncc3C(C)=O)cc21` [Compound I-169, 1-{6-[5-Acetyl-2-(4-morpholin-4-yl-phenylamino)-pyrimidin-4-ylamino]-2,3-dihydro-benzo[1,4]oxazin-4-yl}-propenone], below 10 nM.
Still for that read-out and setting: next, `C=CC(=O)N1CCOc2ccc(Nc3nc(Nc4ccc(OC)nc4)ncc3C(C)=O)cc21` [Compound I-170, 1-{6-[5-Acetyl-2-(6-methoxy-pyridin-3-ylamino)-pyrimidin-4-ylamino]-2,3-dihydro-benzo[1,4]oxazin-4-yl}-propenone]: 10 to 100 nM.
Same read-out and setting: next, `C=CC(=O)Nc1cccc(Nc2nc(Nc3ccc(OC(C)C)nc3)ncc2F)c1` [Compound I-172, N-(3-(5-fluoro-2-(6-isopropoxypyridin-3-ylamino)pyrimidin-4-ylamino)phenyl)acrylamide]: below 10 nM.
As to `C=CC(=O)Nc1cccc(Nc2nc(Nc3ccc(OC)nc3)ncc2C#N)c1` [Compound I-173, N-(3-(5-cyano-2-(6-methoxypyridin-3-ylamino)pyrimidin-4-ylamino)phenyl)acrylamide], the IC50 (Homo sapiens) was below 10 nM.
Still for that read-out and setting: next, `C=CC(=O)Nc1cccc(Nc2nc(Nc3ccc4c(c3)NCCO4)ncc2F)c1` [Compound I-174]: below 10 nM; `C=CC(=O)Nc1cccc(Oc2nc(Nc3ccc(OC)nc3)ncc2C(=O)NC2CC2)c1` [Compound I-176, 4-(3-acrylamidophenoxy)-2-(6-methoxypyridin-3-ylamino)-pyrimidine-5-carboxylic acid cyclopropylamide]: 100 to 1000 nM; `C=CC(=O)Nc1cccc(Oc2nc(Nc3cccc(OC)c3)ncc2C(=O)NC2CC2)c1` [Compound I-177, 4-(3-acrylamidophenoxy)-2-(3-methoxyphenylamino)-pyrimidine-5-carboxylic acid cyclopropylamide]: 100 to 1000 nM.
Regarding `C=CC(=O)Nc1cccc(Oc2nc(Nc3cccc(OC)c3)ncc2C(N)=O)c1` [Compound I-178, 4-(3-acrylamidophenoxy)-2-(3-methoxyphenylamino)pyrimidine-5-carboxylic acid amide], the IC50 (Homo sapiens) was in the range of 10 to 100 nM.
Same read-out and setting: next, `C=CC(=O)N1CCC[C@@H](Oc2nc(Nc3ccc(OC)nc3)ncc2F)C1` [Compound I-180, (R)-1-(3-(5-fluoro-2-(6-methoxypyridin-3-ylamino)pyrimidin-4-yloxy)piperidin-1-yl)prop-2-en-1-one]: 100 to 1000 nM.
